Results reported in ChEMBL document CHEMBL4819100, “Antibacterial and synergistic activity of 6β-hydroxy-3-oxolup-20(29)-en-28-oic acid (6β-hydroxy betunolic acid) isolated from Schumacheria castaneifolia vahl” (2021).
In brackets after ≈: the same amount, converted by molar mass.

Experiments:
Format in all cases: functional
[1] = test system: Staphylococcus aureus; experiment: Antibacterial activity against Staphylococcus aureus assessed as fractional inhibitory concentration incubated for 24 hrs in presence of oxacillin by CLSI based serial dilution method
[2] = test system: Staphylococcus aureus; experiment: Antibacterial activity against methicillin-resistant Staphylococcus aureus 59 assessed as reduction in bacterial growth incubated for 24 hrs in presence of oxacillin by CLSI based serial dilution method
[3] = test system: Staphylococcus aureus; experiment: Antibacterial activity against methicillin-resistant Staphylococcus aureus 114 assessed as fractional inhibitory concentration incubated for 24 hrs in presence of oxacillin by CLSI based serial dilution method
[4] = test system: Klebsiella pneumoniae; experiment: Antibacterial activity against Klebsiella pneumoniae ATCC BAA-1705 assessed as reduction in bacterial growth incubated for 24 hrs by CLSI based serial dilution method
[5] = test system: Escherichia coli; experiment: Antibacterial activity against Escherichia coli ATCC 35218 assessed as reduction in bacterial growth incubated for 24 hrs by CLSI based serial dilution method
[6] = test system: Staphylococcus aureus; experiment: Antibacterial activity against Staphylococcus aureus ATCC 25923 assessed as reduction in bacterial growth incubated for 24 hrs by CLSI based serial dilution method
[7] = test system: Acinetobacter; experiment: Antibacterial activity against Acinetobacter sp. 103 assessed as reduction in bacterial growth incubated for 24 hrs by CLSI based serial dilution method
[8] = test system: Staphylococcus aureus; experiment: Antibacterial activity against methicillin-resistant Staphylococcus aureus 59 assessed as reduction in bacterial growth incubated for 24 hrs by CLSI based serial dilution method
[9] = test system: Staphylococcus aureus; experiment: Antibacterial activity against methicillin-resistant Staphylococcus aureus 59 assessed as fractional inhibitory concentration index incubated for 24 hrs in presence of oxacillin by CLSI based serial dilution method
[10] = test system: Staphylococcus aureus; experiment: Antibacterial activity against methicillin-resistant Staphylococcus aureus 124 assessed as fractional inhibitory concentration index incubated for 24 hrs in presence of oxacillin by CLSI based serial dilution method
[11] = test system: Staphylococcus aureus; experiment: Antibacterial activity against methicillin-resistant Staphylococcus aureus 114 assessed as reduction in bacterial growth incubated for 24 hrs by CLSI based serial dilution method
[12] = test system: Acinetobacter; experiment: Antibacterial activity against Acinetobacter sp. 121 assessed as reduction in bacterial growth incubated for 24 hrs by CLSI based serial dilution method
[13] = test system: Staphylococcus aureus; experiment: Antibacterial activity against methicillin-resistant Staphylococcus aureus 124 assessed as fractional inhibitory concentration incubated for 24 hrs in presence of oxacillin by CLSI based serial dilution method
[14] = test system: Staphylococcus aureus; experiment: Antibacterial activity against Staphylococcus aureus assessed as fractional inhibitory concentration index incubated for 24 hrs in presence of oxacillin by CLSI based serial dilution method
[15] = test system: Staphylococcus aureus; experiment: Antibacterial activity against methicillin-resistant Staphylococcus aureus 58 assessed as fractional inhibitory concentration index incubated for 24 hrs in presence of oxacillin by CLSI based serial dilution method
[16] = test system: Staphylococcus aureus; experiment: Antibacterial activity against methicillin-resistant Staphylococcus aureus 124 assessed as reduction in bacterial growth incubated for 24 hrs by CLSI based serial dilution method
[17] = test system: Escherichia coli; experiment: Antibacterial activity against Escherichia coli ATCC 25922 assessed as reduction in bacterial growth incubated for 24 hrs by CLSI based serial dilution method
[18] = test system: Staphylococcus aureus; experiment: Antibacterial activity against Staphylococcus aureus assessed as reduction in bacterial growth incubated for 24 hrs in presence of oxacillin by CLSI based serial dilution method
[19] = test system: Staphylococcus aureus; experiment: Antibacterial activity against methicillin-resistant Staphylococcus aureus 114 assessed as fractional inhibitory concentration index incubated for 24 hrs in presence of oxacillin by CLSI based serial dilution method
[20] = test system: Enterococcus faecalis; experiment: Antibacterial activity against Enterococcus faecalis ATCC 29212 assessed as reduction in bacterial growth incubated for 24 hrs by CLSI based serial dilution method
[21] = test system: Klebsiella pneumoniae; experiment: Antibacterial activity against Klebsiella pneumoniae ATCC BAA-1706 assessed as reduction in bacterial growth incubated for 24 hrs by CLSI based serial dilution method
[22] = test system: Acinetobacter; experiment: Antibacterial activity against Acinetobacter sp. 122 assessed as reduction in bacterial growth incubated for 24 hrs by CLSI based serial dilution method
[23] = test system: Staphylococcus aureus; experiment: Antibacterial activity against methicillin-resistant Staphylococcus aureus 114 assessed as reduction in bacterial growth incubated for 24 hrs in presence of oxacillin by CLSI based serial dilution method
[24] = test system: Staphylococcus aureus; experiment: Antibacterial activity against methicillin-resistant Staphylococcus aureus 59 assessed as fractional inhibitory concentration incubated for 24 hrs in presence of oxacillin by CLSI based serial dilution method
[25] = test system: Staphylococcus aureus; experiment: Antibacterial activity against methicillin-resistant Staphylococcus aureus 58 assessed as reduction in bacterial growth incubated for 24 hrs by CLSI based serial dilution method
[26] = test system: Staphylococcus aureus; experiment: Antibacterial activity against methicillin-resistant Staphylococcus aureus 58 assessed as fractional inhibitory concentration incubated for 24 hrs in presence of oxacillin by CLSI based serial dilution method
[27] = test system: Pseudomonas aeruginosa; experiment: Antibacterial activity against Pseudomonas aeruginosa ATCC 27853 assessed as reduction in bacterial growth incubated for 24 hrs by CLSI based serial dilution method
[28] = test system: Staphylococcus aureus; experiment: Antibacterial activity against methicillin-resistant Staphylococcus aureus 58 assessed as reduction in bacterial growth incubated for 24 hrs in presence of oxacillin by CLSI based serial dilution method
[29] = test system: Staphylococcus aureus; experiment: Antibacterial activity against methicillin-resistant Staphylococcus aureus 124 assessed as reduction in bacterial growth incubated for 24 hrs in presence of oxacillin by CLSI based serial dilution method
[30] = test system: Staphylococcus aureus; experiment: Antibacterial activity against Staphylococcus aureus ATCC 29213 assessed as reduction in bacterial growth incubated for 24 hrs by CLSI based serial dilution method
[31] = test system: Acinetobacter; experiment: Antibacterial activity against Acinetobacter sp. 126 assessed as reduction in bacterial growth incubated for 24 hrs by CLSI based serial dilution method

SMILES | MIC [4] [µg/mL] | MIC [5] [µg/mL] | MIC [7] [µg/mL] | MIC [8] [µg/mL] | MIC [11] [µg/mL] | MIC [12] [µg/mL] | MIC [16] [µg/mL] | MIC [17] [µg/mL] | MIC [20] [µg/mL] | MIC [22] [µg/mL] | MIC [25] [µg/mL] | MIC [27] [µg/mL] | MIC [30] [µg/mL] | MIC [31] [µg/mL] | other results
C=C(C)[C@@H]1CC[C@]2(C(=O)O)CC[C@]3(C)[C@H](CC[C@@H]4[C@@]5(C)CCC(=O)C(C)(C)[C@@H]5[C@H](O)C[C@]43C)[C@@H]12 | > 1020 | > 1020 | > 1020 | 16 (≈ 34 µM) | 32 (≈ 68 µM) | > 1020 | 32 (≈ 68 µM) | > 1020 | 32 (≈ 68 µM) | > 1020 | 32 (≈ 68 µM) | > 1020 | 32 (≈ 68 µM) | > 1020 | FIC [1]: 0.25; MIC [2]: 8 µg/mL; FIC [3]: 0.5; MIC [6]: 16 µg/mL (≈ 34 µM); fractional inhibitory concentration index (FICI) [9]: 0.75; fractional inhibitory concentration index (FICI) [10]: 2; FIC [13]: 1; fractional inhibitory concentration index (FICI) [14]: 0.49; fractional inhibitory concentration index (FICI) [15]: 1; MIC [18]: 8 µg/mL; fractional inhibitory concentration index (FICI) [19]: 0.53; MIC [21]: > 1020 µg/mL; MIC [23]: 16 µg/mL; FIC [24]: 0.5; FIC [26]: 0.5; MIC [28]: 16 µg/mL; MIC [29]: 32 µg/mL
C[C@@H](O)[C@H]1C(=O)N2C(C(=O)O)=C(S[C@@H]3CN[C@H](C(=O)N(C)C)C3)[C@H](C)[C@H]12 [MEROPENEM] | 8 (≈ 20.9 µM) | 0.008 (≈ 0.0209 µM) | 64 (≈ 167 µM) |  |  | 64 (≈ 167 µM) |  | 0.008 (≈ 0.0209 µM) |  | 128 (≈ 334 µM) |  | 0.12 (≈ 0.313 µM) |  | 128 (≈ 334 µM) | 
Cc1onc(-c2ccccc2)c1C(=O)N[C@@H]1C(=O)N2[C@@H]1SC(C)(C)[C@@H]2C(=O)O [OXACILLIN] |  |  |  | 16 (≈ 39.9 µM) | 16 (≈ 39.9 µM) |  | 16 (≈ 39.9 µM) |  | 8 (≈ 19.9 µM) |  | 16 (≈ 39.9 µM) |  | 0.12 (≈ 0.299 µM) |  | 
